Laboratory results taken from paper PMC11252418, “Specific glycine-dependent enzyme motion determines the potency of conformation selective inhibitors of threonyl-tRNA synthetase” (Communications Biology, 2024).
Several values for one entry are separate records, joined by “and”; a condition that tells them apart may be missing. Equal entries are not always repeated. Where two headings read alike, the source gives them in different places.

Key:
[1] = target: T1, EcThrRS_G463A (Escherichia coli, UniProt P0A8M3, G463A); test: Thermal shift assay (TSA); type: binding
T1 construct: The E. coli ThrRS (residues 242-642, Supplementary Note 1) wild type; 6xHis (C); made in house; host or cells: E. coli BL21 (DE3)
Procedure: (§1) The EcThrRS_WT and L489M/G463S/G463S_Q484A/G463A/A316N mutant proteins, ObaO_WT and ObaO_S464G mutant proteins were prepared at 2 μM in buffer containing 25 mM Tris-HCl pH 7.5, 200 mM NaCl, and 20 μM OB (GlpBio, US) or BN (GlpBio, US) or ddH2O in equal volumes since the compounds were diluted with ddH2O to 1 mM as stocks. […] SYPRO orange dye (Sigma, USA) was diluted in assay buffer containing 25 mM Tris-HCl pH 7.5 and 200 mM NaCl to a 40× concentration, and was added to the mixture to a final 4× concentration. Aliquots (20 μL) were added to a 96-well PCR plate. After complete mixing, the final solutions were heated from 25 to 95 °C at a rate of 0.015 °C/s, and fluorescence signals were monitored by QuantStudio 3 (Applied Biosystems by Thermo Fisher Scientific, USA). The melting temperature (Tm) was calculated through a previously established method[56],[57].

[2] = target: T2, EcThrRS_G463S (Escherichia coli, UniProt P0A8M3, G463S); test: Thermal shift assay (TSA); type: binding
T2 construct: The E. coli ThrRS (residues 242-642, Supplementary Note 1) wild type; 6xHis (C); made in house; host or cells: E. coli BL21 (DE3)
Procedure: as §1

[3] = target: T1, EcThrRS_G463A; test: ATP hydrolysis assay; type: biochemical; settings: for ATP hydrolysis activity, inhibitory curve data point: BN, replicates, sheet Fig.7d
Procedure: (§2) 200 nM EcThrRS wide type and mutants, ObaO and ObaO_S464G mutant were incubated with serially diluted OB (0 to 10 μM for EcThrRS, 0 to 40 μM for ObaO) in a buffer containing 25 mM HEPES pH 7.5, 50 mM NaCl, 40 mM MgCl2, 30 mM KCl, 0.01 mg/mL bovine serum albumin (BSA), and 0.004% Tween-20 at 37 °C for 4 h and then mixed 1:1 with a substrate mixture containing 4 μM ATP, 40 μM L-threonine, 25 mM HEPES pH 7.5, 50 mM NaCl, 40 mM MgCl2, 30 mM KCl, 0.01 mg/mL BSA, and 0.004% Tween-20. The ATP hydrolysis reaction was performed at 37 °C for 4 h.
(§3) After incubation, the detection solution from the Kinase-Glo® luminescent kit (Promega, USA) was added to the reaction system at a 1:1 ratio, and the mixture was gently shaken for 10 min. The chemiluminescence signal was measured using a microplate reader (Tecan, USA). All experiments were performed in four replicates. The data were processed using GraphPad Prism 8 software.

[4] = target: T2, EcThrRS_G463S; test: ATP hydrolysis assay; type: biochemical
Procedure: as §2, §3

[5] = target: T3, EcThrRS_WT (Escherichia coli, UniProt P0A8M3); test: ATP hydrolysis assay; type: biochemical; settings: for ATP hydrolysis activity, inhibitory curve data point: BN, replicates, sheet Fig.7d
T3 construct: The E. coli ThrRS (residues 242-642, Supplementary Note 1) wild type; 6xHis (C); made in house; host or cells: E. coli BL21 (DE3)
Procedure: as §2, §3

[6] = target: T2, EcThrRS_G463S; test: ATP hydrolysis assay; type: biochemical; settings: BN, replicates, sheet Fig.7d
[7] = 2 μM protein, 20 μM compound, mean n = 4, read-out: ΔTm (increase of Tm)

T2 sequence (P0A8M3 242-642 G463S): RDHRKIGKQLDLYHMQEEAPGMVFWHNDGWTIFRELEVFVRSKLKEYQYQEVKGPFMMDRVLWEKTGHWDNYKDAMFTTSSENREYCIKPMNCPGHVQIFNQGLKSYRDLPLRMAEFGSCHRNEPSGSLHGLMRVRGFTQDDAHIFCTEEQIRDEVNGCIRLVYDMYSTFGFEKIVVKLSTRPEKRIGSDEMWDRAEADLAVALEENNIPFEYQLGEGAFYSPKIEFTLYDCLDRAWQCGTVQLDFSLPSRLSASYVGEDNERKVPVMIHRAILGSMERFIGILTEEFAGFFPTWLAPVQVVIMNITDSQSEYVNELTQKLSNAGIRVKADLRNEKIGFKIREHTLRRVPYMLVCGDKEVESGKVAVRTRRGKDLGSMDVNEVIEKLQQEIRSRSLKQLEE
T3 sequence (P0A8M3 242-642): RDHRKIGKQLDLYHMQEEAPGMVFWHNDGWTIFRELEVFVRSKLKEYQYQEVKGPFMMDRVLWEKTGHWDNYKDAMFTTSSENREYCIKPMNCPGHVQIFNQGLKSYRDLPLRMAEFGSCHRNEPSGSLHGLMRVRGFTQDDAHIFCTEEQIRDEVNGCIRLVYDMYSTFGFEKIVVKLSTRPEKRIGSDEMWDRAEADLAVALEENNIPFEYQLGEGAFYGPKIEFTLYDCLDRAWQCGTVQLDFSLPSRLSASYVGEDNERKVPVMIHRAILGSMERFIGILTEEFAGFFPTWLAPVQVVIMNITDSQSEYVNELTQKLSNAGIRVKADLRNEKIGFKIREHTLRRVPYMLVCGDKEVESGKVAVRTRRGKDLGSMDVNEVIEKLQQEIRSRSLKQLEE
T1 sequence (P0A8M3 242-642 G463A): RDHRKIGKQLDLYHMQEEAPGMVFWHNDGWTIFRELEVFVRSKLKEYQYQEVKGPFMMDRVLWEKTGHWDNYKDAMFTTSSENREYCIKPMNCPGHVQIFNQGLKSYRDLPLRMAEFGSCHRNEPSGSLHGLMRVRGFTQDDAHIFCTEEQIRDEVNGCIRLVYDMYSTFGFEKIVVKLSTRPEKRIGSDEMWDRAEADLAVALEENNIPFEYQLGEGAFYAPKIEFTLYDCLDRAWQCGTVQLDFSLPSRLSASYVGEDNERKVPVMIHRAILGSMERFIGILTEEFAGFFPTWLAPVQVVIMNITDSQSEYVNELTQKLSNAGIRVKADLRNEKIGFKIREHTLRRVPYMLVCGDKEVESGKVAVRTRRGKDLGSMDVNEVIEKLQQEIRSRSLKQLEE

C[C@@H]1C[C@H](C)C[C@H](C)[C@@H](O)CC(=O)O[C@H]([C@@H]2CCC[C@H]2C(=O)O)C/C=C/C=C(/C#N)[C@H](O)[C@@H](C)C1 [BN, borrelidin]
ΔTm at 20 µM [1, 7]: 19.1 °C
ΔTm at 20 µM ([1]; source data sheet Fig.7c, ThrRS_G463A, read-out: ΔTm, single replicates): 19.1 °C
ΔTm at 20 µM [2, 7]: 17.4 °C
ΔTm at 20 µM ([2]; source data sheet Fig.7c, ThrRS_G463S, read-out: ΔTm, single replicates): 17.3 °C
decrease of inhibitory effect vs EcThrRS_WT ([3]; 2 μM ATP and 20 μM L-Thr): more than 20 fold
ATP hydrolysis activity, inhibitory curve data point ([3]; Log10 Conc. 1.477, G463A): 95.000 and 86.999 and 114.196 and 92.149
ATP hydrolysis activity, inhibitory curve data point ([3]; Log10 Conc. 2.000, G463A): 87.423 and 89.051 and 94.722 and 94.776
ATP hydrolysis activity, inhibitory curve data point ([3]; Log10 Conc. 2.477, G463A): 87.400 and 82.253 and 93.320 and 93.112
ATP hydrolysis activity, inhibitory curve data point ([3]; Log10 Conc. 3.000, G463A): 81.982 and 81.596 and 85.557 and 86.320
ATP hydrolysis activity, inhibitory curve data point ([3]; Log10 Conc. 3.477, G463A): 63.653 and 64.234 and 69.634 and 68.650
ATP hydrolysis activity, inhibitory curve data point ([3]; Log10 Conc. 4.000, G463A): 68.712 and 73.186 and 66.040 and 70.648
decrease of inhibitory effect vs EcThrRS_WT ([4]; 2 μM ATP and 20 μM L-Thr): more than 20 fold
ATP hydrolysis activity, inhibitory curve data point ([4]; BN, Log10 Conc. 3.477, G463S, replicates, sheet Fig.7d): 72.021 and 67.252 and 61.642 and 63.732
ATP hydrolysis activity, inhibitory curve data point ([5]; Log10 Conc. 1.477, WT): 101.322 and 78.096 and 79.643 and 84.982
ATP hydrolysis activity, inhibitory curve data point ([5]; Log10 Conc. 2.000, WT): 101.576 and 82.194 and 100.286 and 100.117
ATP hydrolysis activity, inhibitory curve data point ([5]; Log10 Conc. 2.477, WT): 72.956 and 78.844 and 97.078 and 88.856
ATP hydrolysis activity, inhibitory curve data point ([5]; Log10 Conc. 3.000, WT): -7.239 and -12.609 and 12.089 and 13.133
ATP hydrolysis activity, inhibitory curve data point ([5]; Log10 Conc. 3.477, WT): -29.715 and 1.779 and -2.712 and 18.045
ATP hydrolysis activity, inhibitory curve data point ([5]; Log10 Conc. 4.000, WT): -14.823 and -17.346 and -12.025 and -9.555
IC50 ([5]; in the presence of 2 μM ATP and 20 μM L-Thr): 0.559 µM
ATP hydrolysis activity, inhibitory curve data point ([6]; Log10 Conc. 1.477, G463S): 98.112 and 97.245 and 94.519 and 96.966
ATP hydrolysis activity, inhibitory curve data point ([6]; Log10 Conc. 2.000, G463S): 96.048 and 91.632 and 90.284 and 92.020
ATP hydrolysis activity, inhibitory curve data point ([6]; Log10 Conc. 2.477, G463S): 91.563 and 88.959 and 88.970 and 89.661
ATP hydrolysis activity, inhibitory curve data point ([6]; Log10 Conc. 3.000, G463S): 84.928 and 77.254 and 80.440 and 82.267
ATP hydrolysis activity, inhibitory curve data point ([6]; Log10 Conc. 4.000, G463S): 53.455 and 58.497 and 57.343 and 60.957
